The source of these data is PubChem BioAssay (NCI).

What all share (assay): NCI anticancer screen, dose series, 48 h
The subject of experiment [1] is M14 melanoma.
Experiment [2] relates to CCRF-CEM leukemia.
In experiment [3] the test system is COLO 205 colon.
Experiment [4] relates to OVCAR-4 ovarian.
Experiment [5] has as its system SW-620 colon.
Experiment [6] deals with UACC-62 melanoma.
The test system of experiment [7] is RPMI-8226 leukemia.
Experiment [8] has as its system NCI/ADR-RES ovarian.
The subject of experiment [9] is TK-10 renal.
For experiment [10], the system named is CAKI-1 renal.

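Cells were grown in 96-well plates and exposed to each compound for 48 hours at five concentrations; endpoints were interpolated linearly between bracketing concentrations, or set to the highest concentration if not reached. GI50 marks 50% less growth. At the TGI there is no net growth.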 Bounds are passed on as bounds.

Turning to `OCCn1c(-c2ccncc2)c(-c2ccc(F)cc2)c2ncccc21`, the GI50 in experiment [1] is more than 25 µM; in experiment [2], more than 25 µM; in experiment [3] it was more than 25000 nM; in [4], more than 25000 nM; in experiment [5] it was more than 25 µM; in experiment [6], more than 25 µM. Moreover, the GI50 in experiment [7] is more than 25 µM; in experiment [8], more than 25 µM; in experiment [9], more than 25000 nM; in experiment [10] it was more than 25 µM. In addition, the TGI in experiment [1], in experiment [2], in [3], in experiment [4], in experiment [5] and in [6] was more than 25 µM throughout. In addition, the TGI in experiment [7], in experiment [8], in experiment [9] and in [10] was more than 25 µM each time.
Turning to `COc1cccc2c(Nc3ccc(C(=O)NCCN4CCNCC4)cc3)cc(-c3ccccc3)nc12`, the GI50 in experiment [1] was 20.1 µM; in [2], 30.1 µM; in [3] it was 19700 nM; in experiment [4] it was 17400 nM; in experiment [5], 29 µM; in experiment [6] it was 65.6 µM. Also, the GI50 is 18 µM in experiment [7], more than 100 µM in [8], 57000 nM in [9] and more than 100 µM in experiment [10]. Further, the TGI in experiment [1] is 38.7 µM; in experiment [2], 91.7 µM; in [3], 56.1 µM; in experiment [4], 74.2 µM; in experiment [5] it was more than 100 µM; in experiment [6] it was more than 100 µM. Also, the TGI is 44.3 µM in experiment [7], more than 100 µM in experiment [8], more than 100 µM in experiment [9] and more than 100 µM in experiment [10].
Turning to `c1csc(-c2[nH]nc3c2CCc2ccccc2-3)c1`, the GI50 in [1] was 17.8 µM; in experiment [2], 21.7 µM; in [3], 766 nM; in [4] it was 2120 nM; in [5], 20.3 µM; in experiment [6], 13.6 µM. Further, the GI50 in experiment [7] is 15.6 µM; in experiment [8], 17.7 µM; in [9], 862 nM; in experiment [10], 19.6 µM. The TGI in [1] amounted to 38 µM; in experiment [2], 73.3 µM; in experiment [3], 8.17 µM; in experiment [4], 37.3 µM; in [5], 46.1 µM; in [6], 27.8 µM. Further, the TGI in experiment [7] was found to be 55.4 µM; in experiment [8] it was 49.3 µM; in [9], 61.6 µM; in [10], 58.1 µM.
Turning to `O=NNc1nc(-c2ccccn2)nc2ccccc12`, the TGI was 22 µM in experiment [1]; 15.4 µM in experiment [2]; more than 100 µM in experiment [3]; more than 100 µM in experiment [4]; 27.7 µM in experiment [5]; 65 µM in experiment [6]. For the same molecule, the values for the TGI in experiment [8], in experiment [9] and in [10] were 63.5 µM, more than 100 µM and more than 100 µM, respectively.
As for `O=C1C(=O)c2c(ccc3ccccc23)-c2ccccc21`, the GI50 in [2] is 2.17 µM; in [3] it was 2240 nM; in experiment [4], 1210 nM; in [5], 1.96 µM; in experiment [6], 1.57 µM; in experiment [7], 0.752 µM. Moreover, the GI50 is 1.19 µM in experiment [8], 2170 nM in experiment [9] and 2.7 µM in experiment [10]. For the same molecule, the TGI in [2] was more than 100 µM; in [3] it was 6.55 µM; in experiment [4] it was 2.5 µM; in experiment [5], 4.23 µM; in experiment [6], 3.38 µM; in experiment [7] it was 5.26 µM. The TGI in [8] was 5.88 µM; in experiment [9], 7.54 µM; in [10] it was more than 100 µM.
As for `N#Cc1c(N)nc(N2CCOCC2)c(C#N)c1-c1ccc(Cl)cc1Cl`, the GI50 in [1] is 18.3 µM; in [2], 23.2 µM; in [3] it was 16600 nM; in experiment [4], 21800 nM; in experiment [5] it was 27.3 µM; in experiment [6], 10.8 µM. Besides, the GI50 is 19.5 µM in experiment [7], 19.9 µM in experiment [8] and 18.6 µM in experiment [10]. Further, the TGI was 42 µM in experiment [1]; 75 µM in experiment [2]; 40.6 µM in experiment [3]; 78.2 µM in [4]; more than 100 µM in [5]; 28.8 µM in experiment [6]. Also, the TGI worked out at 56.9 µM in experiment [7], 48.1 µM in [8] and 46.8 µM in experiment [10].
In the case of `O=C(COC(=O)[C@H](C[Se][Se]C[C@H](NC(=O)c1ccc(Br)cc1F)C(=O)OCC(=O)c1ccc(F)cc1)NC(=O)c1ccc(Br)cc1F)c1ccc(F)cc1`, the GI50 in [1] is 1.08 µM; in experiment [3], 1670 nM; in experiment [4] it was 689 nM; in [5], 0.878 µM; in experiment [6] it was 1.69 µM; in experiment [7], 0.132 µM. For the same molecule, the GI50 in experiment [8] was 0.821 µM; in [9], 341 nM; in [10], 0.716 µM. Besides, the TGI in experiment [1] amounted to 2.9 µM; in experiment [3] it was 3.95 µM; in experiment [4], 1.54 µM; in experiment [5] it was 2.43 µM; in experiment [6], 4.83 µM; in experiment [7], 0.593 µM. The TGI in experiment [8] was 2.39 µM; in experiment [9], 0.9 µM; in experiment [10], 2.66 µM.
Turning to `Cc1cc(C2(c3cc(C)c(O)c4ncccc34)OC(=O)c3ccccc32)c2cccnc2c1O`, the GI50 was 0.0162 µM in experiment [1]; 405 nM in experiment [3]; 0.0521 µM in experiment [5]; 0.0209 µM in [6]; 0.0138 µM in [8]. Besides, the TGI was more than 100 µM in [2]; 28.5 µM in experiment [3]; more than 100 µM in experiment [4]; more than 100 µM in experiment [5]; 14.6 µM in experiment [6]; more than 100 µM in experiment [7]. The TGI in experiment [8] was found to be 17.1 µM; in [10], 1.07 µM.
